Assay results from US9388123B2, “LSD1-selective inhibitor having lysine structure” (KYOTO UNIVERSITY, priority 2012, dated 2016).
Where a name gives a salt, the structure may show the parent alone.

Tests used:
[1] = molecular target: T1, monoamine oxidase A (MAO-A) (Homo sapiens, UniProt P21397); assay: Monoamine oxidase inhibition test (MAO-Glo assay kit); assay type: biochemical; settings: room temperature, 1 hour
T1 construct: purchased Sigma-Aldrich
T1 sequence (P21397 1-527): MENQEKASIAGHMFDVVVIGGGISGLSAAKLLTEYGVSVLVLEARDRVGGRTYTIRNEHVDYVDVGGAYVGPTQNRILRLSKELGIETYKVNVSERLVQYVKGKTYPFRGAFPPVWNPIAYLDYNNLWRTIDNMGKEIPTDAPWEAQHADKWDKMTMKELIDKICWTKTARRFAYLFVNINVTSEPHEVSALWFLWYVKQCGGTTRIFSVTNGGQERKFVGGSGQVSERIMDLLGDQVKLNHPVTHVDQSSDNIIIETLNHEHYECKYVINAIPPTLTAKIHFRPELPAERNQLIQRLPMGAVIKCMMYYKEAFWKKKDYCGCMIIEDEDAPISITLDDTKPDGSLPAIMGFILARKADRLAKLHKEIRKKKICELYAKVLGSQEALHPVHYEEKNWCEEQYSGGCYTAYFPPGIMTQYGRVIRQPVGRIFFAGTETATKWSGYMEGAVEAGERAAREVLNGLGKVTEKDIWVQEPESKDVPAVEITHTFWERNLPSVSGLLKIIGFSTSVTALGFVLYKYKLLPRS
Method: (§6) To the reaction liquid was added 50 μL of a luciferin detection reagent, and the mixture was subjected to a reaction at room temperature for 20 minutes.

[2] = molecular target: T2, monoamine oxidase B (MAO-B) (Homo sapiens, UniProt P27338); assay: as above; assay type: biochemical; settings: room temperature, 1 hour
T2 construct: purchased Sigma-Aldrich
T2 sequence (P27338 1-520): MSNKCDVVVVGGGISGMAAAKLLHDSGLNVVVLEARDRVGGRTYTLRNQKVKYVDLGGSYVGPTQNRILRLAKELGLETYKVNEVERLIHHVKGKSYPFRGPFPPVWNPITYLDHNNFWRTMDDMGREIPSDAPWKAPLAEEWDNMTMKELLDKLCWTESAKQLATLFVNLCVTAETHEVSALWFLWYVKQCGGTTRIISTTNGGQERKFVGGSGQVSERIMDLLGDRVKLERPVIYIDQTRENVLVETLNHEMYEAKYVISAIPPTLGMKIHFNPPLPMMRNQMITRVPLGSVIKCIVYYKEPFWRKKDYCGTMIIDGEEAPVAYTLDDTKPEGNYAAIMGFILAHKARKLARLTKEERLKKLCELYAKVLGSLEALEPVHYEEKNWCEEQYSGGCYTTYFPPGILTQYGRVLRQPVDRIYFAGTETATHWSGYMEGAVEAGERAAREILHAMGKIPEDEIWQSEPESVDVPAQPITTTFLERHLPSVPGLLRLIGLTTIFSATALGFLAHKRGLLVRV
Method: as §6

HeLa cells = assay: Cancer cell growth inhibition evaluation (MTT assay); assay type: cell-based; settings: Homo sapiens, 48 h, read-out: GI50 (μM) HeLa
Method: (§1) Evaluation was performed by measuring the inhibitory activities of a compound against the growth of a human cervical cancer-derived cell line, HeLa cells, and a human neuroblastoma cell line, SH-SY5Y cells. Details thereof are shown below. […] This assay involves, as a principle thereof, measuring an absorbance at the time of color development through a reaction of NADH, which is contained in the mitochondria of viable cells, and MTT to measure the amount of NADH. The assay was performed by the following procedure. […] After the culture, a compound was added. Then, the cells were cultured for an additional 48 hours, and then 5 mg/ml MTT liquid was added at 10 μl per well. The cells were cultured for an additional 3 hours in a CO2 incubator. A solubilization solution (0.04 mol/l hydrochloric acid-isopropanol) was added at 100 μl per well and the mixture was vigorously vortexed. After that, an absorbance at 560 nm was measured with Fusion-aFP (manufactured by PerkinElmer) and the amount of viable cells was determined.

SH-SY5Y cells = assay: as above; assay type: cell-based; settings: Homo sapiens, read-out: GI50 (μM) SH-SY5Y
Method: as §1

HL60 = assay: Leukemia cell growth inhibition evaluation (WST-8); assay type: cell-based; settings: Homo sapiens, HL-60; day 3 (72-hour culture); read-out: Human leukemia cell line GI50 (μM) HL60
Source text: (§2) HL60, THP-1, K562, U937, KGla, HEL, and MDS-L were used as human leukemia cells. The cell lines are cell lines established from various subtypes such as acute myeloid leukemia, acute promyelocytic leukemia, acute monocytic leukemia, acute erythroid leukemia, and myelodysplastic syndromes, which progress to leukemia. Cells obtained by introducing leukemia fusion genes MLL/AF9, MLL/SEPT6, and MLL/ENL into the bone marrow of normal mice with a retrovirus so as to develop leukemia were used as murine leukemia cell lines.
(§3) This assay method involves, as a principle thereof, measuring an absorbance (a peak at from 450 nm to 490 nm) at the time of color development through a reaction of NADH, which is contained in the mitochondria of viable cells, and WST-8 to measure the amount of NADH. Specifically, the assay was performed by the following procedure.
(§4) The cells were plated at 50 μl, i.e., 5,000 cells per well in a 96-well microtiter plate. Next, a test compound dissolved in DMSO was mixed at various concentrations into the same medium, and 50 μl of each of the mixtures was added to each well. A medium was prepared so that the final concentration of the test compound was from 0 μM to 50 μM and so that the addition amount of DMSO was the same, and the cells were cultured in a CO2 incubator. On day 0 before the addition and on day 1, day 2, and day 3 after the addition, WST-8 reagent was added at 20 μl per well, and the cells were cultured for 1 hour in a CO2 incubator. After that, measurement was performed with ARVO X3 (manufactured by PerkinElmer).
(§5) Specifically, an absorbance at 450 nm was measured, an absorbance at 595 nm was measured in the same well, and the absorbance at 595 nm was subtracted from the absorbance at 450 nm to perform background correction for the well itself. Further, a well containing only a medium free of cells was subjected to the same measurement. A value in this case was also subtracted. Thus, the amount of viable cells was represented as a numerical value with correction of the influence of a medicament or a medium as well. Under a condition not containing the test compound (addition of only dimethyl sulfoxide), an exponential increase in number of viable cells on day 1, day 2, and day 3 in the stated order was confirmed.

K562 = assay: Leukemia cell growth inhibition evaluation (WST-8); assay type: cell-based; settings: Homo sapiens, day 3 (72-hour culture), read-out: Human leukemia cell line GI50 (μM) K562
Source text: as §2, §3, §4, §5

KG1a = assay: Leukemia cell growth inhibition evaluation (WST-8); assay type: cell-based; settings: Homo sapiens, KG-1a; day 3 (72-hour culture); read-out: Human leukemia cell line GI50 (μM) KG1a
Source text: as §2, §3, §4, §5

M7 = assay: Leukemia cell growth inhibition evaluation (WST-8); assay type: cell-based; settings: Homo sapiens; day 3 (72-hour culture); read-out: Human leukemia cell line GI50 (μM) M7
Source text: as §2, §3, §4, §5

[3] = tested on: MLL/AF9 leukemia cell line; assay: Leukemia cell growth inhibition evaluation (WST-8); assay type: cell-based; settings: Mus musculus, day 3 (72-hour culture), read-out: Mouse MLL-fusion leukemia cell line GI50 (μM) MLL/AF9
Source text: as §2, §3, §4, §5

[4] = tested on: MLL/ENL leukemia cell line; assay: Leukemia cell growth inhibition evaluation (WST-8); assay type: cell-based; settings: Mus musculus; day 3 (72-hour culture); read-out: Mouse MLL-fusion leukemia cell line GI50 (μM) MLL/ENL
Source text: as §2, §3, §4, §5

THP1 = assay: Leukemia cell growth inhibition evaluation (WST-8); assay type: cell-based; settings: Homo sapiens, THP-1; day 3 (72-hour culture); read-out: Human leukemia cell line GI50 (μM) THP1
Source text: as §2, §3, §4, §5

U937 = assay: Leukemia cell growth inhibition evaluation (WST-8); assay type: cell-based; settings: Homo sapiens, U-937; day 3 (72-hour culture); read-out: Human leukemia cell line GI50 (μM) U937
Source text: as §2, §3, §4, §5

[5] = tested on: human leukemia cell lines; assay: Leukemia cell growth inhibition evaluation, summary in words; assay type: cell-based; settings: Table 5
Source text: as §2, §3, §4, §5

[6] = tested on: murine leukemia cell lines; assay: as above; assay type: cell-based; settings: Table 6
Source text: as §2, §3, §4, §5

HEL = assay: Leukemia cell growth inhibition evaluation (WST-8); assay type: cell-based; settings: Homo sapiens, day 3 (72-hour culture), read-out: Human leukemia cell line GI50 (μM) HEL
Source text: as §2, §3, §4, §5

MDS-L = assay: Leukemia cell growth inhibition evaluation (WST-8); assay type: cell-based; settings: Homo sapiens; day 3 (72-hour culture); read-out: Human leukemia cell line GI50 (μM) MDS-L
Source text: as §2, §3, §4, §5

[7] = tested on: bone marrow cells of normal mice; assay: Normal cell growth inhibition evaluation (colony forming ability in methylcellulose semi-solid medium); assay type: cell-based; settings: at 10 μM; 10 days culture; FIG. 1
Source text: In general, a semi-solid medium obtained by adding a cytokine involved in differentiation induction to a methylcellulose medium is used to evaluate a colony forming ability. Some of the bone marrow cells contain hematopoietic stem cells and precursor cells, which are sources of hematopoietic cells, and these cells can create a mass (called a colony) formed of several tens, several hundreds, and in some cases, several thousands of cells from a single cell on a semi-solid medium. The colony forming ability of the bone marrow cells may be evaluated by counting the number of the colonies. The colony forming ability in the semi-solid medium well reflects an actual supply ability and construction ability from the hematopoietic stem cells and precursor cells to the hematopoietic cells in vivo.
To 3 ml of MethoCult M3434 (methylcellulose-based semi-solid medium; StemCell Technologies; containing interleukin 3(IL-3), interleukin 6 (IL-6), erythropoietin (EPO), and stem cell factor (SCF)) were added 600,000 bone marrow cells of normal mice (suspended in 300 μl of IMDM medium), and the mixture was stirred well and plated at 1.1 ml per 3.5-cm culture dish. The cells were cultured under the conditions of 5% CO2 and 37° C. for 10 days in an incubator. A mass in which the number of cells was 50 or more was defined as a colony, and the number of colonies formed on each dish was counted.

SMILES | IC50 [1] [µM] | IC50 [2] [µM] | GI50 (HeLa cells) [µM] | GI50 (SH-SY5Y cells) [µM] | GI50 (HL60) [µM] | GI50 (K562) [µM] | GI50 (KG1a) [µM] | GI50 (M7) [µM] | GI50 [3] [µM] | GI50 [4] [µM] | GI50 (THP1) [µM] | GI50 (U937) [µM] | growth inhibitory / suppressing effect on the human leukemia cell lines (in words) [5] | growth inhibitory / suppressing effect on the murine leukemia cell lines (in words) [6] | GI50 (HEL) [µM] | GI50 (MDS-L) [µM] | colony forming ability [7]
NC1CC1c1cccc(OCC[C@H](NC(=O)c2ccccc2)C(=O)NCc2ccccc2)c1 (stereo partly drawn) [Comp. Ex. 2, (S)-trans-N-3-[3-(2-aminocyclopropyl)phenoxy]-1-benzylcarbamoylpropylbenzamide hydrochloride, reference compound] | 129 | 326 | 13 | 27 | 6.1 to 33 | 25 to 50 | > 50 | > 50 | < 3.1 | < 3.1 | > 50 | 25 to 50 | a variation in growth inhibitory effect on the human leukemia cell lines depending on the cell lines | high growth inhibitory effects | – | – | –
O=C(N[C@@H](CCCCNC1CC1c1ccccc1)C(=O)NCc1ccc(Cl)cc1)c1ccc(-c2ccccc2)cc1 (stereo partly drawn) [Example 20, 2-[N-(4-Phenylbenzenecarbonyl)]amino-6-(trans-2-phenylcyclopropan-1-amino)-N-(4-chlorobenzyl)hexanamide Hydrochloride] | > 100 | > 100 | 4 | 1.4 | – | – | – | – | – | – | – | – | – | – | – | – | –
O=C(N[C@@H](CCCCNC1CC1c1ccccc1)C(=O)NCc1cccc(Cl)c1)c1ccc(-c2ccccc2)cc1 (stereo partly drawn) [Example 21, 2-[N-(4-Phenylbenzenecarbonyl)]amino-6-(trans-2-phenylcyclopropan-1-amino)-N-(3-chlorobenzyl)hexanamide Hydrochloride] | > 100 | > 100 | 4.3 | 2.7 | 5 to 10 | – | 10 to 20 | – | – | – | 10 to 20 | 10 to 20 | higher growth suppressing effects on the human leukemia cell lines than Comparative Example 2 | very high growth suppressing effects | < 1.3 | < 1.3 | not inhibited
